Experimental data reported in PubChem BioAssay AID330 (DTP/NCI, 2004).
Where “and” joins values, the source holds several entries; their conditions need not be identical. Equal entries are not always repeated. Toxic doses and inconclusive results are not listed.

Tested on: P388 leukemia ip, CD2F1 mice, survival T/C
Test: NCI In Vivo Anticancer Drug Screen. Data for tumor model P388 Leukemia (intraperitoneal) in CD2F1 (CDF1) mice
Conditions: endpoint: median survival time, higher = longer survival
Method in brief: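 Mice carrying the transplanted tumor received test compound or vehicle. Survival was recorded in each group, and the value is the treated-group measurement divided by that of the vehicle-treated control group.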

[1] = dose: 50.0 mg/kg/injection, schedule: Q01DX009 (ip), vehicle: Klucel (hydroxypropylcellulose) (HPC)
[2] = dose: 60.0 mg/kg/injection, schedule: Q01DX005 (ip), vehicle: saline with Tween-80
[3] = dose: 120.0 mg/kg/injection, schedule: Q01DX005 (ip), vehicle: saline with Tween-80
[4] = dose: 240.0 mg/kg/injection, schedule: Q01DX005 (ip), vehicle: saline with Tween-80
[5] = dose: 100.0 mg/kg/injection, schedule: Q01DX001 (ip), vehicle: saline with Tween-80
[6] = dose: 200.0 mg/kg/injection, schedule: Q01DX001 (ip), vehicle: saline with Tween-80
[7] = dose: 50.0 mg/kg/injection, schedule: Q01DX005 (ip), vehicle: saline with Tween-80
[8] = dose: 100.0 mg/kg/injection, schedule: Q01DX005 (ip), vehicle: saline with Tween-80
[9] = dose: 100.0 mg/kg/injection, schedule: Q01DX009 (ip), vehicle: Klucel (hydroxypropylcellulose) (HPC)
[10] = dose: 200.0 mg/kg/injection, schedule: Q01DX009 (ip), vehicle: Klucel (hydroxypropylcellulose) (HPC)
[11] = dose: 50.0 mg/kg/injection, schedule: Q01DX009 (ip), vehicle: saline
[12] = dose: 100.0 mg/kg/injection, schedule: Q01DX009 (ip), vehicle: saline
[13] = dose: 200.0 mg/kg/injection, schedule: Q01DX009 (ip), vehicle: saline

SMILES: O=C1NC(=O)C2(CCC(O)C2)c2ccncc21 (configuration not stated)
- T/C (dose: 0.12 mg/kg/injection, schedule: Q01DX009 (ip), vehicle: saline + Tween-80 + alcohol): 103 % of control
- T/C (dose: 0.25 mg/kg/injection, schedule: Q01DX009 (ip), vehicle: saline + Tween-80 + alcohol): 100 % of control
- T/C (dose: 0.5 mg/kg/injection, schedule: Q01DX009 (ip), vehicle: saline + Tween-80 + alcohol): 103 % of control
- T/C (dose: 1.0 mg/kg/injection, schedule: Q01DX009 (ip), vehicle: saline + Tween-80 + alcohol): 100 % of control and 120 % of control
- T/C (dose: 1.4 mg/kg/injection, schedule: Q01DX009 (ip), vehicle: saline + Tween-80 + alcohol): 117 % of control

SMILES: COc1ccc(C(c2cc(C(C)(C)C)cc(C(C)(C)C)c2O)N(C)C)cc1 (configuration not stated)
- T/C (dose: 50.0 mg/kg/injection, schedule: Q01DX005 (ip), vehicle: distilled water + alcohol): 103 % of control
- T/C (dose: 100.0 mg/kg/injection, schedule: Q01DX005 (ip), vehicle: distilled water + alcohol): 103 % of control
- T/C (dose: 200.0 mg/kg/injection, schedule: Q01DX005 (ip), vehicle: distilled water + alcohol): 105 % of control

SMILES: CC(=O)OC1C2C3C2C2C1C32 (configuration not stated)
- T/C (dose: 100.0 mg/kg/injection, schedule: Q04DX002 (ip), vehicle: other): 113 % of control
- T/C (dose: 200.0 mg/kg/injection, schedule: Q04DX002 (ip), vehicle: other): 106 % of control
- T/C (dose: 400.0 mg/kg/injection, schedule: Q04DX002 (ip), vehicle: other): 103 % of control

SMILES: Nc1nc([Se])c2ncn(C3CC(O)C(CO)O3)c2n1 (configuration not stated)
- T/C (dose: 12.5 mg/kg/injection, schedule: Q01DX009 (ip), vehicle: Klucel (hydroxypropylcellulose) (HPC)): 160 % of control
- T/C (dose: 25.0 mg/kg/injection, schedule: Q01DX009 (ip), vehicle: Klucel (hydroxypropylcellulose) (HPC)): 169 % of control and 173 % of control
- T/C [1]: 112 % of control

SMILES: C=C1C(=O)C23C(OC(=O)CCCCCCCCCCCCC)C1CCC2C12COC3(O)C(O)C1C(C)(C)CCC2O (configuration not stated)
- T/C (dose: 3.75 mg/kg/injection, schedule: Q01DX009 (ip), vehicle: saline with Tween-80): 104 % of control
- T/C (dose: 7.5 mg/kg/injection, schedule: Q01DX009 (ip), vehicle: saline with Tween-80): 109 % of control
- T/C (dose: 15.0 mg/kg/injection, schedule: Q01DX009 (ip), vehicle: saline with Tween-80): 112 % of control

SMILES: COC(=O)c1nnn(-c2cc(Cl)ccc2Cl)c1C(=O)c1ccc(OC)cc1
- T/C [2]: 95 % of control
- T/C [3]: 100 % of control
- T/C [4]: 89 % of control

SMILES: [O-]/[N+](=C\c1ccccc1)C(c1ccccc1)c1ccccc1
- T/C (dose: 25.0 mg/kg/injection, schedule: Q04DX003 (ip), vehicle: saline): 100 % of control
- T/C (dose: 50.0 mg/kg/injection, schedule: Q04DX003 (ip), vehicle: saline): 100 % of control
- T/C (dose: 100.0 mg/kg/injection, schedule: Q04DX003 (ip), vehicle: saline): 100 % of control

SMILES: CCOC(=O)C1C/C(=N\OC(C)=O)c2ccc(OC)c(OC)c2C1 (configuration not stated)
- T/C (dose: 12.5 mg/kg/injection, schedule: Q01DX009 (ip), vehicle: other): 110 % of control
- T/C (dose: 25.0 mg/kg/injection, schedule: Q01DX009 (ip), vehicle: other): 101 % of control
- T/C (dose: 50.0 mg/kg/injection, schedule: Q01DX009 (ip), vehicle: other): 98 % of control
- T/C (dose: 100.0 mg/kg/injection, schedule: Q01DX009 (ip), vehicle: other): 87 % of control
- T/C (dose: 200.0 mg/kg/injection, schedule: Q01DX009 (ip), vehicle: other): 88 % of control

SMILES: Cc1ccc(S(=O)CC#CC#CCS(=O)c2ccc(C)cc2)cc1 (configuration not stated)
- T/C (dose: 50.0 mg/kg/injection, schedule: Q01DX001 (ip), vehicle: saline with Tween-80): 93 % of control
- T/C [5]: 97 % of control
- T/C [6]: 101 % of control

SMILES: O=C(Nc1ccccc1-c1ccccc1)c1cccc2ccccc12
- T/C [7]: 106 % of control
- T/C [8]: 94 % of control
- T/C (dose: 200.0 mg/kg/injection, schedule: Q01DX005 (ip), vehicle: saline with Tween-80): 90 % of control

SMILES: NN1C(=O)CCC1=O
- T/C (dose: 50.0 mg/kg/injection, schedule: Q01DX009 (ip), vehicle: saline with Tween-80): 94 % of control
- T/C (dose: 100.0 mg/kg/injection, schedule: Q01DX009 (ip), vehicle: saline with Tween-80): 97 % of control
- T/C (dose: 200.0 mg/kg/injection, schedule: Q01DX009 (ip), vehicle: saline with Tween-80): 92 % of control

SMILES: CS(=O)(=O)/C=C/c1cc2ccccc2[nH]1
- T/C [1]: 89 % of control
- T/C [9]: 101 % of control
- T/C [10]: 104 % of control

SMILES: CCSC(C(O)C(O)C(O)C(O)CO)n1cnc2c(=S)nc[nH]c21 (configuration not stated)
- T/C (dose: 25.0 mg/kg/injection, schedule: Q01DX009 (ip), vehicle: water): 97 % of control
- T/C (dose: 50.0 mg/kg/injection, schedule: Q01DX009 (ip), vehicle: water): 94 % of control
- T/C (dose: 100.0 mg/kg/injection, schedule: Q01DX009 (ip), vehicle: water): 105 % of control
- T/C (dose: 200.0 mg/kg/injection, schedule: Q01DX009 (ip), vehicle: water): 105 % of control
- T/C (dose: 400.0 mg/kg/injection, schedule: Q01DX009 (ip), vehicle: water): 96 % of control

SMILES: C/C(=N/NS(=O)(=O)c1ccc(C)cc1)C(=NO)/C(C)=N\NS(=O)(=O)c1ccc(C)cc1
- T/C [11]: 92 % of control
- T/C [12]: 100 % of control
- T/C [13]: 101 % of control

SMILES: O=C(NC(CO)C(=O)O)OCc1ccccc1 (configuration not stated)
- T/C [1]: 94 % of control
- T/C [9]: 99 % of control
- T/C [10]: 89 % of control

SMILES: Cc1ncc(CO)c(C2NC(C(=O)O)CS2)c1O (configuration not stated)
- T/C [2]: 98 % of control
- T/C [3]: 98 % of control
- T/C [4]: 100 % of control

SMILES: C=C1NC(=O)C(N)=C1C(C)=O
- T/C [2]: 100 % of control
- T/C [3]: 104 % of control

SMILES: ClCC#CCOc1c(Cl)cccc1Cl
- T/C [11]: 86 % of control
- T/C [12]: 92 % of control
- T/C [13]: 98 % of control

SMILES: COc1ccc(N=Nc2c(C)[nH]n(C)c2=O)cc1
- T/C (dose: 100.0 mg/kg/injection, schedule: Q04DX002 (ip), vehicle: saline with Tween-80): 96 % of control
- T/C (dose: 200.0 mg/kg/injection, schedule: Q04DX002 (ip), vehicle: saline with Tween-80): 97 % of control

SMILES: O=S1(=O)c2ccccc2N(c2ccccc2)c2nnc(COc3ccccc3)n21
- T/C [7]: 90 % of control
- T/C [8]: 88 % of control

SMILES: COc1ccc(C2C(C(=O)NCc3ccccc3)=C(C)NC(C)=C2C(=O)NCc2ccccc2)cc1OC
- T/C (dose: 15.0 mg/kg/injection, schedule: Q01DX005 (ip), vehicle: Klucel (hydroxypropylcellulose) (HPC)): 100 % of control
- T/C (dose: 30.0 mg/kg/injection, schedule: Q01DX005 (ip), vehicle: Klucel (hydroxypropylcellulose) (HPC)): 100 % of control
- T/C (dose: 60.0 mg/kg/injection, schedule: Q01DX005 (ip), vehicle: Klucel (hydroxypropylcellulose) (HPC)): 100 % of control and 88 % of control

SMILES: Cc1ccc(C2(C)C(=O)c3ccccc3C2=O)cc1
- T/C (dose: 100.0 mg/kg/injection, schedule: Q04DX002 (ip), vehicle: saline): 101 % of control
- T/C (dose: 200.0 mg/kg/injection, schedule: Q04DX002 (ip), vehicle: saline): 100 % of control
- T/C (dose: 400.0 mg/kg/injection, schedule: Q04DX002 (ip), vehicle: saline): 107 % of control

SMILES: [Cl][Pt+2][Cl].[NH-]C1CCCC1.[NH-]C1CCCC1
- T/C (dose: 20.0 mg/kg/injection, schedule: Q01DX009 (ip), vehicle: Klucel (hydroxypropylcellulose) (HPC)): 156 % of control and 169 % of control
- T/C (dose: 40.0 mg/kg/injection, schedule: Q01DX009 (ip), vehicle: Klucel (hydroxypropylcellulose) (HPC)): 156 % of control and 168 % of control and 175 % of control
- T/C (dose: 80.0 mg/kg/injection, schedule: Q01DX009 (ip), vehicle: Klucel (hydroxypropylcellulose) (HPC)): 179 % of control and 193 % of control and 220 % of control
- T/C (dose: 160.0 mg/kg/injection, schedule: Q01DX009 (ip), vehicle: Klucel (hydroxypropylcellulose) (HPC)): 182 % of control and 233 % of control
- T/C (dose: 320.0 mg/kg/injection, schedule: Q01DX009 (ip), vehicle: Klucel (hydroxypropylcellulose) (HPC)): 110 % of control and 186 % of control and 229 % of control

SMILES: CSc1nc(NC2OC(COC(C)=O)C(OC(C)=O)C(OC(C)=O)C2OC(C)=O)c(N=CC=Nc2c(NC3OC(COC(C)=O)C(OC(C)=O)C(OC(C)=O)C3OC(C)=O)nc(SC)n(C)c2=O)c(=O)n1C (configuration not stated)
- T/C [2]: 89 % of control
- T/C [3]: 91 % of control

SMILES: Cc1oc2c(c(=O)c1C)CN(Cc1ccccc1)CC2
- T/C [5]: 100 % of control
- T/C [6]: 100 % of control
- T/C (dose: 400.0 mg/kg/injection, schedule: Q01DX001 (ip), vehicle: saline with Tween-80): 99 % of control

SMILES: Cc1cc(C)c2c(c1)/C(=C/C(=O)c1ccccc1)C(=O)N2
- T/C [1]: 100 % of control
- T/C [9]: 95 % of control
- T/C [10]: 100 % of control
